These compounds were tested against T1, human MGL from HeLa cells (Homo sapiens, UniProt Q99685) (assay: In vitro MGL activity assay: [glycerol-1,3-3H]-oleyl glycerol cleavage by MGL from HeLa cells). Details: 300 nM [Glycerol-1,3-3H]-oleyl glycerol, one hour.
T1 construct: combining endogenously expressed MGL from HeLa cells with test compounds; endogenous in cells; host or cells: HeLa cells / cell homogenates
T1 sequence (Q99685 1-303): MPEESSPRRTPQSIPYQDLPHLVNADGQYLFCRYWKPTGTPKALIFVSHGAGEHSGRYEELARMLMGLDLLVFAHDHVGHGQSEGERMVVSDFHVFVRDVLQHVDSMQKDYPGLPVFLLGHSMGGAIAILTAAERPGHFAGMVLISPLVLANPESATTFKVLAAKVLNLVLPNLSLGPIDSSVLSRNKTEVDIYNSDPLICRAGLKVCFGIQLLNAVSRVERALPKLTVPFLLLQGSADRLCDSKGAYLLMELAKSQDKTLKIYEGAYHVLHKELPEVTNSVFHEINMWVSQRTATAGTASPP
Type: biochemical
Source text: MGL is the predominant hydrolase in HeLa cells/cell homogenates.

Row | SMILES | IC50
1 | Cc1ccnc2ccc(C(=O)N3CCc4c(nn(C)c4-c4cc(F)c(F)c(F)c4)[C@@H]3C)cc12 [Example 549, [(7S)-2,7-Dimethyl-3-(3,4,5-trifluorophenyl)-5,7-dihydro-4H-pyrazolo[3,4-c]pyridin-6-yl]-(4-methyl-6-quinolyl)methanone] | 1.99 nM
2 | COc1cccc2c(C(=O)N3CCc4c(nn(C)c4-c4cc(F)c(F)c(F)c4)[C@@H]3C)ccnc12 [Example 550, [(7S)-2,7-Dimethyl-3-(3,4,5-trifluorophenyl)-5,7-dihydro-4H-pyrazolo[3,4-c]pyridin-6-yl]-(8-methoxy-4-quinolyl)methanone] | 48.3 nM
3 | C[C@H]1c2nn(C)c(-c3cc(F)c(F)c(F)c3)c2CCN1C(=O)c1cnn2c1CCC2 [Example 551, 5,6-Dihydro-4H-pyrrolo[1,2-b]pyrazol-3-yl-[(7S)-2,7-dimethyl-3-(3,4,5-trifluorophenyl)-5,7-dihydro-4H-pyrazolo[3,4-c]pyridin-6-yl]methanone] | 122 nM
4 | C[C@H]1c2nn(C)c(-c3cc(F)c(F)c(F)c3)c2CCN1C(=O)c1cnn2c1CCCC2 [Example 552, [(7S)-2,7-Dimethyl-3-(3,4,5-trifluorophenyl)-5,7-dihydro-4H-pyrazolo[3,4-c]pyridin-6-yl]-(4,5,6,7-tetrahydropyrazolo[1,5-a]pyridin-3-yl)methanone] | 40.4 nM
5 | C[C@H]1c2nn(C)c(-c3cc(F)c(F)c(F)c3)c2CCN1C(=O)c1cc2n(n1)CCCO2 [Example 553, 6,7-Dihydro-5H-pyrazolo[5,1-b][1,3]oxazin-2-yl-[(7S)-2,7-dimethyl-3-(3,4,5-trifluorophenyl)-5,7-dihydro-4H-pyrazolo[3,4-c]pyridin-6-yl]methanone] | 285 nM
6 | C[C@H]1c2nn(C)c(-c3cc(F)c(F)c(F)c3)c2CCN1C(=O)c1cnn2c1OCCC2 [Example 554, 6,7-Dihydro-5H-pyrazolo[5,1-b][1,3]oxazin-3-yl-[(7S)-2,7-dimethyl-3-(3,4,5-trifluorophenyl)-5,7-dihydro-4H-pyrazolo[3,4-c]pyridin-6-yl]methanone] | 57.6 nM
7 | Cc1c(C(=O)N2CCc3c(nn(C)c3-c3cc(F)c(F)c(F)c3)[C@@H]2C)nn2c1OCCC2 [Example 555, [(7S)-2,7-Dimethyl-3-(3,4,5-trifluorophenyl)-5,7-dihydro-4H-pyrazolo[3,4-c]pyridin-6-yl]-(3-methyl-6,7-dihydro-5H-pyrazolo[5,1-b][1,3]oxazin-2-yl)methanone] | 183 nM
8 | Cc1nn2c(c1C(=O)N1CCc3c(nn(C)c3-c3cc(F)c(F)c(F)c3)[C@@H]1C)COC(C)(C)C2 [Example 556, [(7S)-2,7-Dimethyl-3-(3,4,5-trifluorophenyl)-5,7-dihydro-4H-pyrazolo[3,4-c]pyridin-6-yl]-(2,6,6-trimethyl-4,7-dihydropyrazolo[5,1-c][1,4]oxazin-3-yl)methanone] | 803 nM
9 | Cc1c(C(=O)N2CCc3c(nn(C)c3-c3cc(F)c(F)c(F)c3)[C@@H]2C)nn2c1COC(C)(C)C2 [Example 557, [(7S)-2,7-Dimethyl-3-(3,4,5-trifluorophenyl)-5,7-dihydro-4H-pyrazolo[3,4-c]pyridin-6-yl]-(3,6,6-trimethyl-4,7-dihydropyrazolo[5,1-c][1,4]oxazin-2-yl)methanone] | 1840 nM
10 | C[C@H]1c2nn(C)c(-c3cc(F)c(F)c(F)c3)c2CCN1C(=O)c1cnn2c1NCCC2C(F)(F)F (stereo partly drawn) [Example 558, ((S)-2,7-Dimethyl-3-(3,4,5-trifluorophenyl)-4,5-dihydro-2H-pyrazolo[3,4-c]pyridin-6 (7H)-yl)(7-(trifluoromethyl)-4,5,6,7-tetrahydropyrazolo[1,5-a]pyrimidin-3-yl)methanone] | 1800 nM
11 | C[C@H]1c2nn(C)c(-c3cc(F)c(F)c(F)c3)c2CCN1C(=O)c1cnc2n1CCC2 [Example 559, 6,7-Dihydro-5H-pyrrolo[1,2-a]imidazol-3-yl-[(7S)-2,7-dimethyl-3-(3,4,5-trifluorophenyl)-5,7-dihydro-4H-pyrazolo[3,4-c]pyridin-6-yl]methanone] | 294 nM
12 | C[C@H]1c2nn(C)c(-c3cc(F)c(F)c(F)c3)c2CCN1C(=O)c1cnc2n1CCCC2 [Example 560, [(7S)-2,7-Dimethyl-3-(3,4,5-trifluorophenyl)-5,7-dihydro-4H-pyrazolo[3,4-c]pyridin-6-yl]-(5,6,7,8-tetrahydroimidazo[1,2-a]pyridin-3-yl)methanone] | 120 nM
13 | C[C@H]1c2nn(C)c(-c3cc(F)c(F)c(F)c3)c2CCN1C(=O)c1c(C(F)F)nc2n1CCCC2 [Example 561, [2-(Difluoromethyl)-5,6,7,8-tetrahydroimidazo[1,2-a]pyridin-3-yl]-[(7S)-2,7-dimethyl-3-(3,4,5-trifluorophenyl)-5,7-dihydro-4H-pyrazolo[3,4-c]pyridin-6-yl]methanone] | 326 nM
14 | C[C@H]1c2nn(C)c(-c3cc(F)c(F)c(F)c3)c2CCN1C(=O)c1cnc2n1CCOC2 [Example 562, 6,8-Dihydro-5H-imidazo[2,1-c][1,4]oxazin-3-yl-[(7S)-2,7-dimethyl-3-(3,4,5-trifluorophenyl)-5,7-dihydro-4H-pyrazolo[3,4-c]pyridin-6-yl]methanone] | 717 nM
15 | C[C@H]1c2nn(C)c(-c3cc(F)c(F)c(F)c3)c2CCN1C(=O)c1cnc2c(c1)CCCO2 [Example 563, 3,4-Dihydro-2H-pyrano[2,3-b]pyridin-6-yl-[(7S)-2,7-dimethyl-3-(3,4,5-trifluorophenyl)-5,7-dihydro-4H-pyrazolo[3,4-c]pyridin-6-yl]methanone] | 329 nM
16 | C[C@H]1c2nn(C)c(-c3cc(F)c(F)c(F)c3)c2CCN1C(=O)c1ccnc2c1CCCO2 [Example 564, 3,4-Dihydro-2H-pyrano[2,3-b]pyridin-5-yl-[(7S)-2,7-dimethyl-3-(3,4,5-trifluorophenyl)-5,7-dihydro-4H-pyrazolo[3,4-c]pyridin-6-yl]methanone] | 58.7 nM
17 | C[C@H]1c2nn(C)c(-c3cc(F)c(F)c(F)c3)c2CCN1C(=O)c1ccnc2c1CCOC2 [Example 565, 6,8-Dihydro-5H-pyrano[3,4-b]pyridin-4-yl-[(7S)-2,7-dimethyl-3-(3,4,5-trifluorophenyl)-5,7-dihydro-4H-pyrazolo[3,4-c]pyridin-6-yl]methanone] | 108 nM
18 | C[C@H]1c2nn(C)c(-c3cc(F)c(F)c(F)c3)c2CCN1C(=O)c1ccc2c(n1)COCC2 [Example 566, 6,8-Dihydro-5H-pyrano[3,4-b]pyridin-2-yl-[(7S)-2,7-dimethyl-3-(3,4,5-trifluorophenyl)-5,7-dihydro-4H-pyrazolo[3,4-c]pyridin-6-yl]methanone] | 533 nM
19 | C[C@H]1c2nn(C)c(-c3cc(F)c(F)c(F)c3)c2CCN1C(=O)c1cnc2c(c1)COCC2 [Example 567, 7,8-Dihydro-5H-pyrano[4,3-b]pyridin-3-yl-[(7S)-2,7-dimethyl-3-(3,4,5-trifluorophenyl)-5,7-dihydro-4H-pyrazolo[3,4-c]pyridin-6-yl]methanone] | 1050 nM
20 | C[C@H]1c2nn(C)c(-c3cc(F)c(F)c(F)c3)c2CCN1C(=O)c1ccnc2c1OCCC2 [Example 568, 3,4-Dihydro-2H-pyrano[3,2-b]pyridin-8-yl-[(7S)-2,7-dimethyl-3-(3,4,5-trifluorophenyl)-5,7-dihydro-4H-pyrazolo[3,4-c]pyridin-6-yl]methanone] | 9.68 nM
21 | C[C@H]1c2nn(C)c(-c3cc(F)c(F)c(F)c3)c2CCN1C(=O)c1ccnc2c1OCCO2 [Example 569, 2,3-Dihydro-[1,4]dioxino[2,3-b]pyridin-8-yl-[(7S)-2,7-dimethyl-3-(3,4,5-trifluorophenyl)-5,7-dihydro-4H-pyrazolo[3,4-c]pyridin-6-yl]methanone] | 28.7 nM
22 | C[C@H]1c2nn(C)c(-c3cc(F)c(F)c(F)c3)c2CCN1C(=O)c1cnc2c(c1)OCCO2 [Example 570, 2,3-Dihydro-[1,4]dioxino[2,3-b]pyridin-7-yl-[(7S)-2,7-dimethyl-3-(3,4,5-trifluorophenyl)-5,7-dihydro-4H-pyrazolo[3,4-c]pyridin-6-yl]methanone] | 136 nM
23 | C[C@H]1c2nn(C)c(-c3cc(F)c(F)c(F)c3)c2CCN1C(=O)c1cnc2c(c1)OCCN2 [Example 571, 3,4-Dihydro-2H-pyrido[3,2-b][1,4]oxazin-7-yl-[(7S)-2,7-dimethyl-3-(3,4,5-trifluorophenyl)-5,7-dihydro-4H-pyrazolo[3,4-c]pyridin-6-yl]methanone] | 12.7 nM
24 | C[C@H]1c2nn(C)c(-c3cc(F)c(F)c(F)c3)c2CCN1C(=O)c1cnc2c(c1)OCCN2C [Example 572, [(7S)-2,7-Dimethyl-3-(3,4,5-trifluorophenyl)-5,7-dihydro-4H-pyrazolo[3,4-c]pyridin-6-yl]-(4-methyl-2,3-dihydropyrido[3,2-b][1,4]oxazin-7-yl)methanone] | 51.9 nM
25 | C[C@H]1c2nn(C)c(-c3cc(F)c(F)c(F)c3)c2CCN1C(=O)c1cc2c(cn1)OCCC2 [Example 573, 3,4-Dihydro-2H-pyrano[2,3-c]pyridin-6-yl-[(7S)-2,7-dimethyl-3-(3,4,5-trifluorophenyl)-5,7-dihydro-4H-pyrazolo[3,4-c]pyridin-6-yl]methanone] | 242 nM
26 | C[C@H]1c2nn(C)c(-c3cc(F)c(F)c(F)c3)c2CCN1C(=O)c1cccc2c1CCNC2 [Example 574, [(7S)-2,7-Dimethyl-3-(3,4,5-trifluorophenyl)-5,7-dihydro-4H-pyrazolo[3,4-c]pyridin-6-yl]-(1,2,3,4-tetrahydroisoquinolin-5-yl)methanone] | 330 nM
27 | C[C@H]1c2nn(C)c(-c3cc(F)c(F)c(F)c3)c2CCN1C(=O)c1cccc2c1CNCC2 [Example 575, [(7S)-2,7-Dimethyl-3-(3,4,5-trifluorophenyl)-5,7-dihydro-4H-pyrazolo[3,4-c]pyridin-6-yl]-(1,2,3,4-tetrahydroisoquinolin-8-yl)methanone] | 72.7 nM

— patent publication US11820766B2, “Monoacylglycerol lipase modulators” (Janssen Pharmaceutica NV, priority 2018, dated 2023)
